This passage reports inhibition results from ChEMBL document CHEMBL4417636, “Small molecule inhibitors of pendrin ion exchange and pharmaceutical compositions” (2017).

Experiment [1] deals with T1, Pendrin (Homo sapiens) (UniProt O43511).
T1 sequence (whole entry): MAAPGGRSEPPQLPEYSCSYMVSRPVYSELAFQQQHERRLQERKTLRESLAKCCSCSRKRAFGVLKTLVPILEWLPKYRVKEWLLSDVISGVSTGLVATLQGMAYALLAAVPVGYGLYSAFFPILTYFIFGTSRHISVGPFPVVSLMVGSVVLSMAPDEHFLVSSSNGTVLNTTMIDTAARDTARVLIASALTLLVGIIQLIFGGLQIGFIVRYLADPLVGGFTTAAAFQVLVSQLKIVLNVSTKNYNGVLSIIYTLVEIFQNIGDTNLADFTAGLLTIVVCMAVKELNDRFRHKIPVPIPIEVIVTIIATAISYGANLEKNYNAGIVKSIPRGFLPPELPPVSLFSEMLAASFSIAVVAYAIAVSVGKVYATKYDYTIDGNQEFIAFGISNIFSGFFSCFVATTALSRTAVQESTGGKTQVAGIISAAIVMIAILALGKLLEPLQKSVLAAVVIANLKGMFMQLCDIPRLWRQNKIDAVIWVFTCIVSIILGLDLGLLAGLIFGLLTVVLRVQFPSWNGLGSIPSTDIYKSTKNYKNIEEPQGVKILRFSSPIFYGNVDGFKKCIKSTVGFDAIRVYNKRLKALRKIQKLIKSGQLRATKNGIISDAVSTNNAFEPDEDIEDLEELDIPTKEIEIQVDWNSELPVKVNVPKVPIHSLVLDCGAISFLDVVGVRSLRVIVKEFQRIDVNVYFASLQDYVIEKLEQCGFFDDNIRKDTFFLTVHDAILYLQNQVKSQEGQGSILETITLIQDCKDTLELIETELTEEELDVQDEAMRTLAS
The experiment is described as follows: Inhibition of human pendrin expressed in FRT cells co-expressing EYFP-HIF assessed as reduction in pendrin-mediated anion exchange at 25 uM incubated for 10 mins by pH-sensitive fluorescent probe BCECF-AM based fluorescence assay relative to control. Type of experiment: cell-based.

For experiment [2], the target named is T1, Pendrin (Homo sapiens). The experiment is described as follows: Inhibition of human pendrin expressed in FRT cells co-expressing EYFP-HIF assessed as reduction in pendrin-mediated anion exchange at 100 uM incubated for 10 mins by pH-sensitive fluorescent probe BCECF-AM based fluorescence assay relative to control. The class given is cell-based.

Calls of active or inactive are those of the source. The rule behind the calls is not given here.

What is called inhibition is how much of the control response was suppressed. For `NS(=O)(=O)c1cc(C(=O)O)c(NCc2ccco2)cc1Cl`, the inhibition result in experiment [1] was “inactive”.
Still for that read-out and setting: as for `Cn1nc(COc2ccc(F)cc2)c2c1CCN(C(=O)Nc1cccc(Cl)c1)C2`, the figure is 60%.
Turning to `O=C(O)c1cccnc1Nc1cccc(C(F)(F)F)c1`, in experiment [2], the inhibition was less than 40%.
